Values of other authors as cited in patent US20030069214A1, “Process for preparing saponin compounds” (priority 2001, published 2003).

Columns and labels:
[1] = system: broad spectrum of malignant tumor cells; settings: Bioorg. Med. Chem. Lett., 7, 633, 1997
normal cells = normal cells in vitro; Bioorg. Med. Chem. Lett., 7, 633, 1997

Compound: COc1ccc(C(=O)O[C@H]2[C@H](O[C@@H]3[C@@H](OC(C)=O)[C@H](O[C@H]4C[C@H]5[C@@H]6CC=C7C[C@@H](O)CC[C@]7(C)[C@H]6CC[C@]5(C)[C@@]4(O)[C@H](C)C(=O)CCC(C)C)OC[C@@H]3O)OC[C@@H](O)[C@@H]2O)cc1 [OSW-1]
- toxicity against malignant tumor cells [1]: highly toxic
- toxicity to normal cells (normal cells): little toxicity
